Assay results taken from patent publication US10227331B2 (priority 2015, dated 2019).
Converted amounts (≈) assume the structure as drawn.

How the values were obtained:
[1] = system: MB 5890 (OprD+, efflux-); format: cell-based, Pseudomonas aeruginosa
[2] = system: MB 5919 (OprD+, efflux+); format: cell-based, Pseudomonas aeruginosa
[3] = system: MB 9862 (MB 5890 Trans pFIp-Vim1, efflux-); format: cell-based, Pseudomonas aeruginosa
[4] = system: MB 9799 (MB 5890 Trans IMP1 plasmid, efflux-); format: cell-based, Pseudomonas aeruginosa; conditions: CL 5673 (IMP-1) plasmid
[5] = system: MB 9861 (MB 5919 Trans pFIp-Vim1 plasmid, efflux+); format: cell-based, Pseudomonas aeruginosa
[6] = system: MB 5890 Trans pFIp-Vim2 plasd (efflux-); format: cell-based, Pseudomonas aeruginosa
[7] = system: MB 5919 Trans pFIp-Vim2 plasd (efflux+); format: cell-based, Pseudomonas aeruginosa
[8] = system: P. aeruginosa expressing IMP-1, efflux− (MB9799); test: Efflux: concentration of MBL inhibitor which restores susceptibility to imipenem; format: cell-based, Pseudomonas aeruginosa; conditions: imipenem at 2 μg/mL, in the presence of a class A, C, D serine β-lactamase inhibitor closely related to relebactam
From the text: (§1) The strain background is Pseudomonas aeruginosa PAO1.

[9] = target: IMP-1 (Serratia marcescens, UniProt P52699); test: biochemical; format: biochemical; conditions: CCF2-FA substrate, 2 hours at 25° C; read-out: IMP-1 IC50
Procedure, shortened: (§2)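 Fluorescence assay, CCF2-FA substrate (cephalosporin core linking 7-hydroxycoumarin to fluorescein); inhibitor + MBL + substrate, 2 h, 25° C. IC50 by 4-parameter fit, semi-log plot.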

[10] = target: NDM-1 (Klebsiella pneumoniae, UniProt C7C422); test: biochemical; format: biochemical; conditions: CCF2-FA substrate, 2 hours at 25° C; read-out: NDM-1 IC50
Procedure, shortened: as §2

[11] = target: VIM-1 (Pseudomonas aeruginosa (strain ATCC 15692 / DSM 22644 / CIP 104116 / JCM 14847 / LMG 12228 / 1C / PRS 101 / PAO1), UniProt A0A0F7KYQ8); test: biochemical; conditions: CCF2-FA substrate, 2 hours at 25° C
Procedure, shortened: as §2

[12] = system: Escherichia coli expressing NDM-1 (CLB30005, CLB30016); format: cell-based; conditions: NDM-1 (CLB30016), with imipenem 1 μg/ml, 95% inhibition of bacterial growth
Procedure, shortened: (§3)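 Colonies from overnight 35 °C blood-agar cultures were suspended in saline, diluted 1:100 into 1.1× CAMHB and exposed to test compound with or without imipenem at 1 μg/ml. After 22–24 h at 35 °C, absorbance was read to find the concentration restoring imipenem susceptibility.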

[13] = system: Serratia marcescens expressing IMP-1 (CL5741); format: cell-based; conditions: IMP-1 (CL5741), with imipenem 1 μg/ml, 95% inhibition of bacterial growth
Procedure, shortened: as §3

[14] = system: Klebsiella pneumoniae expressing VIM-1 (IHMA599644); format: cell-based; conditions: VIM-1 (IHMA599644), with imipenem 1 μg/ml, 95% inhibition of bacterial growth
Procedure, shortened: as §3

[15] = system: P. aeruginosa expressing IMP-1, efflux+ (MB9798); format: cell-based, Pseudomonas aeruginosa; conditions: for P. aeruginosa expressing IMP-1, efflux+ (MB9798) MITC95: imipenem at 2 μg/mL, in the presence of a class A, C, D serine β-lactamase inhibitor closely related to relebactam; for Efflux ratio: ratio MITC95 PA_9798/MITC95 PA_9799
From the text: as §1

NDM-1, sequence (C7C422 whole entry, looked up, species assumed): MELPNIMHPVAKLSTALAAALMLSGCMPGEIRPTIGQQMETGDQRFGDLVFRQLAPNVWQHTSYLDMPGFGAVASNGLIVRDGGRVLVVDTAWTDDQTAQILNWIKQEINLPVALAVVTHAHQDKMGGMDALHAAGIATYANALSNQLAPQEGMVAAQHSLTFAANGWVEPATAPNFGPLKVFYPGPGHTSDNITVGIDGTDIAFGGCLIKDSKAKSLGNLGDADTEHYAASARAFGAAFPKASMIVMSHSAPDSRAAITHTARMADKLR
IMP-1, sequence (P52699 whole entry, looked up, species assumed): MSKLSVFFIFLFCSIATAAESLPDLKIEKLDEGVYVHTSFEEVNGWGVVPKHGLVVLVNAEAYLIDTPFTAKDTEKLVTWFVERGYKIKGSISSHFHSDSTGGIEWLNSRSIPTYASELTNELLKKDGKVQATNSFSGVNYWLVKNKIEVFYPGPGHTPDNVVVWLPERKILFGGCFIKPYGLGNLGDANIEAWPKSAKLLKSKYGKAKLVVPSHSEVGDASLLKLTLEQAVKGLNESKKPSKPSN

## CC(C)(O/N=C(\C(=O)N[C@@H]1C(=O)N2C(C(=O)[O-])=C(C[n+]3ccccc3)CS[C@H]12)c1csc(N)n1)C(=O)O [CAZ, ceftazidime]
[1]
  MIC: 0.5 µg/mL (≈ 0.915 µM)
[2]
  MIC: 1 µg/mL (≈ 1.83 µM)
[3]
  MIC: >256 µg/mL
[4]
  MIC: 256 µg/mL (≈ 468 µM)
[5]
  MIC: >256 µg/mL
[6]
  MIC: 64 µg/mL (≈ 117 µM)
[7]
  MIC: 128 µg/mL (≈ 234 µM)

## NCCNC(=O)c1cccc(-c2ccc(S(=O)(=O)CCN)c(S(N)(=O)=O)c2-c2nn[nH]n2)c1N [Example 378, 2-amino-N-(2-aminoethyl)-4′-((2-aminoethyl)sulfonyl)-3′-sulfamoyl-2′-(2H-tetrazol-5-yl)-[1,1′-biphenyl]-3-carboxamide]
[8]
  P. aeruginosa expressing IMP-1, efflux− (MB9799) MITC95: 0.7813 µM
[9]
  IC50: 5.1 nM
[10]
  IC50: 3.72 nM
[11]
  IC50: 0.544 nM
[12]
  Escherichia coli MITC95: 0.7813 µM
[13]
  Serratia marcescens MITC95: 0.7813 µM
[14]
  Klebsiella pneumoniae MITC95: 1.563 µM
[15]
  P. aeruginosa expressing IMP-1, efflux+ (MB9798) MITC95: 1.563 µM
  Efflux ratio: 2.00

## NC[C@@H](O)CS(=O)(=O)c1ccc(-c2cc(I)cc3[nH]c(N)nc23)c(-c2nn[nH]n2)c1S(N)(=O)=O [Example 379, (R)-6-((3-amino-2-hydroxypropyl)sulfonyl)-3-(2-amino-6-iodo-1H-benzo[d]imidazol-4-yl)-2-(2H-tetrazol-5-yl)benzenesulfonamide]
[8]
  P. aeruginosa expressing IMP-1, efflux− (MB9799) MITC95: 0.7813 µM
[9]
  IC50: 0.17 nM
[10]
  IC50: 0.0809 nM
[11]
  IC50: 0.123 nM
[12]
  Escherichia coli MITC95: 0.7813 µM
[13]
  Serratia marcescens MITC95: 0.7813 µM
[14]
  Klebsiella pneumoniae MITC95: 1.563 µM
[15]
  P. aeruginosa expressing IMP-1, efflux+ (MB9798) MITC95: 0.3906 µM
  Efflux ratio: 0.50

## C[C@@H](O)[C@H]1C(=O)N2C(C(=O)O)=C(SCCN=CN)C[C@H]12 [Imipenem, imipenem]
[1]
  MIC: 2 µg/mL (≈ 6.68 µM)
[2]
  MIC: 4 µg/mL (≈ 13.4 µM)
[3]
  MIC: 64 µg/mL (≈ 214 µM)
[4]
  MIC: 32 µg/mL (≈ 107 µM)
[5]
  MIC: >64 µg/mL
[6]
  MIC: 32 µg/mL (≈ 107 µM)
[7]
  MIC: >64 µg/mL

## C[C@@H](O)[C@H]1C(=O)N2C(C(=O)O)=C(S[C@@H]3CN[C@H](C(=O)N(C)C)C3)[C@H](C)[C@H]12 [Meropenem, meropenem]
[1]
  MIC: 0.5 µg/mL (≈ 1.3 µM)
[2]
  MIC: 2 µg/mL (≈ 5.22 µM)
[3]
  MIC: 64 µg/mL (≈ 167 µM)
[4]
  MIC: 64 µg/mL (≈ 167 µM)
[5]
  MIC: >64 µg/mL
[6]
  MIC: 32 µg/mL (≈ 83.4 µM)
[7]
  MIC: >64 µg/mL

## CCN1CCN(C(=O)N[C@@H](C(=O)N[C@@H]2C(=O)N3[C@@H]2SC(C)(C)[C@@H]3C(=O)O)c2ccccc2)C(=O)C1=O [Pipercillin, piperacillin]
[1]
  MIC: 1 µg/mL (≈ 1.93 µM)
[2]
  MIC: 2 µg/mL (≈ 3.86 µM)
[3]
  MIC: 128 µg/mL (≈ 247 µM)
[4]
  MIC: 4 µg/mL (≈ 7.73 µM)
[5]
  MIC: >256 µg/mL
[6]
  MIC: 128 µg/mL (≈ 247 µM)
[7]
  MIC: >256 µg/mL

## NCCS(=O)(=O)c1ccc(-c2cccc(NC(=O)[C@H](N)CO)c2)c(-c2nn[nH]n2)c1S(N)(=O)=O [compound 334, (R)-2-amino-N-(4′-((2-aminoethyl)sulfonyl)-3′-sulfamoyl-2′-(2H-tetrazol-5-yl)-[1,1′-biphenyl]-3-yl)-3-hydroxypropanamide]
[8]
  P. aeruginosa expressing IMP-1, efflux− (MB9799) MITC95: 1.563 µM
[9]
  IC50: 4.54 nM
[10]
  IC50: 2.53 nM
[11]
  IC50: 0.504 nM
[12]
  Escherichia coli MITC95: 1.563 µM
[13]
  Serratia marcescens MITC95: 3.125 µM
[14]
  Klebsiella pneumoniae MITC95: 3.125 µM
[15]
  P. aeruginosa expressing IMP-1, efflux+ (MB9798) MITC95: 12.5 µM
  Efflux ratio: 8.00

## NCCNC(=O)c1cc(-c2ccc(S(=O)(=O)CCN)c(S(N)(=O)=O)c2-c2nn[nH]n2)cnc1N [compound 337, 2-amino-N-(2-aminoethyl)-5-(4-((2-aminoethyl)sulfonyl)-3-sulfamoyl-2-(2H-tetrazol-5-yl)phenyl)nicotinamide]
[8]
  P. aeruginosa expressing IMP-1, efflux− (MB9799) MITC95: 0.7813 µM
[9]
  IC50: 12.3 nM
[10]
  IC50: 5.65 nM
[11]
  IC50: 4.38 nM
[12]
  Escherichia coli MITC95: 0.7813 µM
[13]
  Serratia marcescens MITC95: 1.563 µM
[14]
  Klebsiella pneumoniae MITC95: 1.563 µM
[15]
  P. aeruginosa expressing IMP-1, efflux+ (MB9798) MITC95: 6.25 µM
  Efflux ratio: 8.00
